These results are taken from ChEMBL document CHEMBL4334483, “STING modulators: Predictive significance in drug discovery” (Eur J Med Chem, 2019).

Each structure is given as a SMILES string.

Usually IC50 stands for the concentration that inhibits the measured activity by half. The EC50 is the concentration giving half of the maximal effect.

Test [1] is described as follows: Inhibition of STING R232 mutant in mouse MEF cells assessed as increase in IFNbeta secretion.
The species named for another test is Homo sapiens. The experiment in a line: Selectivity index, ratio of EC50(app) for TBK1 in human PBMC […] in human PBMC.
In test [2] the target is Stimulator of interferon genes protein (Homo sapiens, UniProt Q86WV6). The experiment in a line: Induction of STING in human PBMC assessed as increase in IFNbeta secretion.
Sequence of Stimulator of interferon genes protein (Q86WV6 whole entry): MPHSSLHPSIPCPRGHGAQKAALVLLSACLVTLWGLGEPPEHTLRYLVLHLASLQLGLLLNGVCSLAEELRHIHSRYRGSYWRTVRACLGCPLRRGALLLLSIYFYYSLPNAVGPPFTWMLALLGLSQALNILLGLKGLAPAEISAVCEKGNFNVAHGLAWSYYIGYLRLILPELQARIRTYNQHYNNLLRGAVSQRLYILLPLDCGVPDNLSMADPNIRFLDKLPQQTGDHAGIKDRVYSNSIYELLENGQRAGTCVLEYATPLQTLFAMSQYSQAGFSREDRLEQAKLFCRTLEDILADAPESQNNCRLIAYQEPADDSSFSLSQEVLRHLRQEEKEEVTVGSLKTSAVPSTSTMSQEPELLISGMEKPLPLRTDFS
Test [3] deals with T1, Serine/threonine-protein kinase TBK1 (Homo sapiens, UniProt Q9UHD2).
T1 sequence (Q9UHD2 whole entry): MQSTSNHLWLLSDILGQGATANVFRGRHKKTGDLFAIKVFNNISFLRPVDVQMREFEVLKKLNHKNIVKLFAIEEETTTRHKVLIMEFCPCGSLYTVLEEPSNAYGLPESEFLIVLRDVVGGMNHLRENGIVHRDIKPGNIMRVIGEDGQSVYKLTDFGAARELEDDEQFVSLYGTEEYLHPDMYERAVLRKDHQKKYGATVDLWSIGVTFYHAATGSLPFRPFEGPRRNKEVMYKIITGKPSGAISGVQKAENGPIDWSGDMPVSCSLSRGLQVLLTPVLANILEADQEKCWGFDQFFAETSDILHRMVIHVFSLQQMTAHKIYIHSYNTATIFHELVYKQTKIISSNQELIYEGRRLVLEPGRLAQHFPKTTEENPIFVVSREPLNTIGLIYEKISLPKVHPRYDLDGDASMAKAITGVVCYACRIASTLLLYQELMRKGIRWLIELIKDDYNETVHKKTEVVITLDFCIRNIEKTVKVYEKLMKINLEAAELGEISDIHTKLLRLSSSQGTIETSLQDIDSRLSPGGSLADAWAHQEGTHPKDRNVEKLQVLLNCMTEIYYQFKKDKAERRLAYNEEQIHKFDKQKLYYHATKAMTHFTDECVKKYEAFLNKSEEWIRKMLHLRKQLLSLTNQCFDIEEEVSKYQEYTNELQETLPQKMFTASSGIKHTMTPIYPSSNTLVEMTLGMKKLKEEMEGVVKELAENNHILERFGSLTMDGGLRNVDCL
The experiment in a line: Induction of TBK1 in human PBMC assessed as increase in […].

For the compound `CC[C@@H]1NC(=O)[C@@H]2[C@H](Cl)[C@H](Cl)CN2C(=O)[C@H](CC)NC(=O)C[C@H](c2ccccc2)NC(=O)[C@H](CO)NC1=O`, the IC50 in test [1] was found to be 3.42 µM.
For `CCn1nc(C)cc1C(=O)/N=c1\[nH]c2cc(C(N)=O)ccc2n1CCCCn1/c(=N/C(=O)c2cc(C)nn2CC)[nH]c2cc(C(N)=O)ccc21`, the Ratio EC50 in the test listed under Homo sapiens is 18.
As for `CCn1nc(C)cc1C(=O)Nc1nc2cc(C(N)=O)ccc2n1CCCCn1c(NC(=O)c2cc(C)nn2CC)nc2cc(C(N)=O)ccc21`, the EC50 amounted to 3.1 µM in test [2] and 53.9 µM in test [3].
